Laboratory results as given in patent US20230146675A1, “PYRIMIDO[5,4-d]PYRIMIDINE DERIVATIVES AS ENT INHIBITORS FOR THE TREATMENT OF CANCERS, AND COMBINATION THEREOF WITH ADENOSINE RECEPTOR ANTAGONISTS” (ITEOS BELGIUM SA, priority 2020, published 2023).

Target: T1, human ENT1 (Homo sapiens, UniProt Q99808)
T1 sequence (Q99808 1-456): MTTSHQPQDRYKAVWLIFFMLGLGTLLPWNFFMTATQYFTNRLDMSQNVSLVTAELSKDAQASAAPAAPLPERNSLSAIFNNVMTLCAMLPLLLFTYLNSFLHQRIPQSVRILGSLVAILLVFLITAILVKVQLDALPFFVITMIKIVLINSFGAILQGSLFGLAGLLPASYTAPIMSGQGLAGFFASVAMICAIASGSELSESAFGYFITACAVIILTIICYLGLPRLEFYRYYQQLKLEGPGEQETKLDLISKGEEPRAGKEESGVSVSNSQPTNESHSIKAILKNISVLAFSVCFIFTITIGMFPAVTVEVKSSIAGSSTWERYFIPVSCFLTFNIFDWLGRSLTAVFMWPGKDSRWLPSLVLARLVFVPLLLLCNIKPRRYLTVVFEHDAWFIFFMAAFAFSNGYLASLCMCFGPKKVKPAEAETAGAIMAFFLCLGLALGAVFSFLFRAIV
Assay: ENT1 binding assay (competition with Sahenta-DY647 on JAR cells)
Parameters: JAR cells expressing ENT1 were bought from ATCC; host or cells: JAR cells
Conditions: binned IC50
Procedure, shortened: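 JAR cells were incubated with test compounds and the fluorescent ligand Sahenta-DY647 in competition. Plates were washed twice by centrifugation (4 min, 400 rcf, 4 °C). Binding potency was derived from the final fluorescence.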

| IC50 | Structure (SMILES) |
| --- | --- |
| < 100 nM | COCCN(CCOC)c1nc(N2CCN(C)C(=O)C2)c2nc(N(CCOC)CCOC)nc(NCc3cccc(OC(F)(F)F)c3)c2n1 [Compound 210, 4-(2,6-bis(bis(2-methoxyethyl)amino)-8-((3-(trifluoromethoxy)benzyl)amino)pyrimido[5,4-d]pyrimidin-4-yl)-1-methylpiperazin-2-one] |
| 500 to 1000 nM | CCOC(=O)N1CCN(c2nc(N3CCC(OC)CC3)c3nc(N(CCOC)CCOC)nc(N4CCC(OC)CC4)c3n2)CC1 [Compound 31, ethyl 4-(6-(bis(2-methoxyethyl)amino)-4,8-bis(4-methoxypiperidin-1-yl)pyrimido[5,4-d]pyrimidin-2-yl)piperazine-1-carboxylate] |
| < 100 nM | COCCN(Cc1ccc(C(=O)O)c(C)c1)c1nc(N2CCN(C)C(=O)C2)c2nc(N(CCOC)CCOC)nc(N3CCC(OC)CC3)c2n1 [Compound 338, 4-(((6-(bis(2-methoxyethyl)amino)-8-(4-methoxypiperidin-1-yl)-4-(4-methyl-3-oxopiperazin-1-yl)pyrimido[5,4-d]pyrimidin-2-yl)(2-methoxyethyl)amino)methyl)-2-methylbenzoic acid] |
| 500 to 1000 nM | COCCCCNc1nc(N(CCOC)CCOC)nc2c(N3CCC(OC)CC3)nc(N(CCOC)CCOC)nc12 [Compound 181, N4-(4-methoxybutyl)-N2,N2,N6,N6-tetrakis(2-methoxyethyl)-8-(4-methoxypiperidin-1-yl)pyrimido[5,4-d]pyrimidine-2,4,6-triamine] |
| 500 to 1000 nM | COCCN(CCOC)c1nc(N2CCC(S(C)(=O)=O)CC2)c2nc(N(CCOC)CCOC)nc(N3CCC(OC)CC3)c2n1 [Compound 78, N2,N2,N6,N6-tetrakis(2-methoxyethyl)-4-(4-methoxypiperidin-1-yl)-8-(4-(methylsulfonyl)piperidin-1-yl)pyrimido[5,4-d]pyrimidine-2,6-diamine] |
| 100 to 500 nM | COCCN(CCOC)c1nc(N2CCC(OC)CC2)c2nc(N(CCOC)CCOC)nc(NCC(C)(C)C)c2n1 [Compound 50, N2,N2,N6,N6-tetrakis(2-methoxyethyl)-8-(4-methoxypiperidin-1-yl)-N4-neopentylpyrimido[5,4-d]pyrimidine-2,4,6-triamine] |
| 100 to 500 nM | COCCN(CCOC)c1nc(N2CCN(c3ncn(C)n3)CC2)c2nc(N(CCOC)CCOC)nc(N3CCC(OC)CC3)c2n1 [Compound 196, N2,N2,N6,N6-tetrakis(2-methoxyethyl)-4-(4-methoxypiperidin-1-yl)-8-(4-(1-methyl-1H-1,2,4-triazol-3-yl)piperazin-1-yl)pyrimido[5,4-d]pyrimidine-2,6-diamine] |
| 500 to 1000 nM | COCCN(CCOC)c1nc(N2CCS(=O)(=O)CC2)c2nc(N(CCOC)CCOC)nc(N3CCS(=O)(=O)CC3)c2n1 [Compound 37, 4,4′-(2,6-bis(bis(2-methoxyethyl)amino)pyrimido[5,4-d]pyrimidine-4,8-diyl)bis(thiomorpholine 1,1-dioxide)] |
| 500 to 1000 nM | COCCN(CCOC)c1nc(N2CCC3(CC2)NC(=O)NC3=O)c2nc(N(CCOC)CCOC)nc(N3CCC(OC)CC3)c2n1 [Compound 117, 8-(2,6-bis(bis(2-methoxyethyl)amino)-8-(4-methoxypiperidin-1-yl)pyrimido[5,4-d]pyrimidin-4-yl)-1,3,8-triazaspiro[4.5]decane-2,4-dione] |
| 100 to 500 nM | CCCNc1nc(N(CCOC)CCOC)nc2c(N3CCN(c4ncn(C)n4)CC3)nc(N(CCOC)CCOC)nc12 [Compound 218, N2,N2,N6,N6-tetrakis(2-methoxyethyl)-8-(4-(1-methyl-1H-1,2,4-triazol-3-yl)piperazin-1-yl)-N4-propylpyrimido[5,4-d]pyrimidine-2,4,6-triamine] |
| 100 to 500 nM | COCCN(CCOC)c1nc(N2CCc3cc(OC)c(OC)cc3C2)c2nc(N(CCOC)CCOC)nc(N3CCc4cc(OC)c(OC)cc4C3)c2n1 [Compound 4, 4,8-bis(6,7-dimethoxy-3,4-dihydroisoquinolin-2(1H)-yl)-N2,N2,N6,N6-tetrakis(2-methoxyethyl)pyrimido[5,4-d]pyrimidine-2,6-diamine] |
| 500 to 1000 nM | COCCN(CCOC)c1nc(N2CCC(OC)CC2)c2nc(N(CCOC)CCOC)nc(NCc3cc(C)no3)c2n1 [Compound 162, N2,N2,N6,N6-tetrakis(2-methoxyethyl)-8-(4-methoxypiperidin-1-yl)-N4-((3-methylisoxazol-5-yl)methyl)pyrimido[5,4-d]pyrimidine-2,4,6-triamine] |
| < 100 nM | COCCN(CCOC)c1nc(N2CCN(c3ncn(C)n3)CC2)c2nc(N(CCOC)CCOC)nc(NCc3ccc(F)c(C#N)c3)c2n1 [Compound 225, 5-(((2,6-bis(bis(2-methoxyethyl)amino)-8-(4-(1-methyl-1H-1,2,4-triazol-3-yl)piperazin-1-yl)pyrimido[5,4-d]pyrimidin-4-yl)amino)methyl)-2-fluorobenzonitrile] |
| < 100 nM | COCCN(CCOC)c1nc(N2CCc3nn(C)cc3C2)c2nc(N(CCOC)CCOC)nc(N3CCN(C)C(=O)C3)c2n1 [Compound 252, 4-(2,6-bis(bis(2-methoxyethyl)amino)-8-(2-methyl-2,4,6,7-tetrahydro-5H-pyrazolo[4,3-c]pyridin-5-yl)pyrimido[5,4-d]pyrimidin-4-yl)-1-methylpiperazin-2-one] |

The next lines start with the molecule.

| Structure (SMILES) | IC50 |
| --- | --- |
| COCCN(CCOC)c1nc(N2CCN(c3ncn(C)n3)CC2)c2nc(N(CCOC)CCOC)nc(N(C)Cc3ccc(F)c(F)c3)c2n1 [Compound 247, N4-(3,4-difluorobenzyl)-N2,N2,N6,N6-tetrakis(2-methoxyethyl)-N4-methyl-8-(4-(1-methyl-1H-1,2,4-triazol-3-yl)piperazin-1-yl)pyrimido[5,4-d]pyrimidine-2,4,6-triamine] | 100 to 500 nM |
| COCCN(CCOC)c1nc(N2CCC(OC)CC2)c2nc(N(CCOC)CCOC)nc(NCC3CCOC3)c2n1 (stereo not shown) [Compound 57, N2,N2,N6,N6-tetrakis(2-methoxyethyl)-8-(4-methoxypiperidin-1-yl)-N4-((tetrahydrofuran-3-yl)methyl)pyrimido[5,4-d]pyrimidine-2,4,6-triamine] | 500 to 1000 nM |
| COCCN(CCOC)c1nc(N2CCC(OC)CC2)c2nc(N(CCOC)CCOC)nc(OCc3cc(OC)cc(OC)c3)c2n1 [Compound 152, 4-((3,5-dimethoxybenzyl)oxy)-N2,N2,N6,N6-tetrakis(2-methoxyethyl)-8-(4-methoxypiperidin-1-yl)pyrimido[5,4-d]pyrimidine-2,6-diamine] | < 100 nM |
| COCCN(CCOC)c1nc(N2CCC(OC)CC2)c2nc(NCCn3cccn3)nc(N3CCC(OC)CC3)c2n1 [Compound 32, N2-(2-(1H-pyrazol-1-yl)ethyl)-N6,N6-bis(2-methoxyethyl)-4,8-bis(4-methoxypiperidin-1-yl)pyrimido[5,4-d]pyrimidine-2,6-diamine] | 500 to 1000 nM |
| COCCN(CCOC)c1nc(N2CCN(C)C(=O)C2)c2nc(N(CCOC)CCOC)nc(N(C)Cc3cccc(F)c3)c2n1 [Compound 233, 4-(2,6-bis(bis(2-methoxyethyl)amino)-8-((3-fluorobenzyl)(methyl)amino)pyrimido[5,4-d]pyrimidin-4-yl)-1-methylpiperazin-2-one] | < 100 nM |
| COCCN(CCOC)c1nc(N2CCC(OC)CC2)c2nc(N(CCOC)CCOC)nc(N3CCC(O)CC3)c2n1 [Compound 71, 1-(2,6-bis(bis(2-methoxyethyl)amino)-8-(4-methoxypiperidin-1-yl)pyrimido[5,4-d]pyrimidin-4-yl)piperidin-4-ol] | 100 to 500 nM |
| COCCN(CCOC)c1nc(N2CC(O)(C(F)(F)F)C2)c2nc(N(CCO)CCO)nc(N3CCC(OC)CC3)c2n1 [Compound 326, 2,2′-((6-(bis(2-methoxyethyl)amino)-8-(3-hydroxy-3-(trifluoromethyl)azetidin-1-yl)-4-(4-methoxypiperidin-1-yl)pyrimido[5,4-d]pyrimidin-2-yl)azanediyl)bis(ethan-1-ol)] | 500 to 1000 nM |
| COCCN(CCn1ccnc1)c1nc(N2CCN(C)C(=O)C2)c2nc(N(CCOC)CCOC)nc(N3CCC(OC)CC3)c2n1 [Compound 285, 4-(2-((2-(1H-imidazol-1-yl)ethyl)(2-methoxyethyl)amino)-6-(bis(2-methoxyethyl)amino)-8-(4-methoxypiperidin-1-yl)pyrimido[5,4-d]pyrimidin-4-yl)-1-methylpiperazin-2-one] | 100 to 500 nM |
| COCCN(CCOC)c1nc(N2CCC(OC)CC2)c2nc(N(CCOC)CCOC)nc(NCc3cccc(-c4ncco4)c3)c2n1 [Compound 151, N2,N2,N6,N6-tetrakis(2-methoxyethyl)-8-(4-methoxypiperidin-1-yl)-N4-(3-(oxazol-2-yl)benzyl)pyrimido[5,4-d]pyrimidine-2,4,6-triamine] | 100 to 500 nM |
| COCCN(CCOC)c1nc(N2CCN(c3ncn(C)n3)CC2)c2nc(N(CCOC)CCOC)nc(NCc3cccc(S(C)(=O)=O)c3)c2n1 [Compound 226, N2,N2,N6,N6-tetrakis(2-methoxyethyl)-8-(4-(1-methyl-1H-1,2,4-triazol-3-yl)piperazin-1-yl)-N4-(3-(methylsulfonyl)benzyl)pyrimido[5,4-d]pyrimidine-2,4,6-triamine] | 100 to 500 nM |
| COCCN(CCOC)c1nc(N2CCC(CO)C2)c2nc(N(CCOC)CCOC)nc(N3CCC(OC)CC3)c2n1 (stereo not shown) [Compound 136, (1-(2,6-bis(bis(2-methoxyethyl)amino)-8-(4-methoxypiperidin-1-yl)pyrimido[5,4-d]pyrimidin-4-yl)pyrrolidin-3-yl)methanol] | < 100 nM |
